Broadly, the IC50 is the point on the concentration scale where inhibition reaches its midpoint.

One test concerns the target T1, SMYD3 (Homo sapiens, UniProt Q9H7B4).
T1 sequence (Q9H7B4 1-428): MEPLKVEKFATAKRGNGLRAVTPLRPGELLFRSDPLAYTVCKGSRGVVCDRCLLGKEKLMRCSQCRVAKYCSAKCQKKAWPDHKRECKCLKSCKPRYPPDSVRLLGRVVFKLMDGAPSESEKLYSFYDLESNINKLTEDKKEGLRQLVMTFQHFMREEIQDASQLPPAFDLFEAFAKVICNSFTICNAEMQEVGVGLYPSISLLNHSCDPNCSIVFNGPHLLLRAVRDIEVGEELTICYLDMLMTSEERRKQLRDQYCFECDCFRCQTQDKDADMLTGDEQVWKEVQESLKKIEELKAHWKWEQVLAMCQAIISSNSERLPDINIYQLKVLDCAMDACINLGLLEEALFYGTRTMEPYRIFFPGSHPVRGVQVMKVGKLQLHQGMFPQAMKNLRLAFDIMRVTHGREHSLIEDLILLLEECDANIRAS
Description: SMYD3 biochemical assay (MTase-Glo, MAP3K2 peptide substrate).
Conditions: not given
The essentials:
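Luminescent readout of SAH production (coupled SAH→ATP conversion, MTase-Glo) after SMYD3 reacted 30 min at room temperature with 1.0 µM SAM and 10 µM MAP3K2 peptide, both final. Non-linear regression gave IC50 values.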
As for `NC(=O)C1CCN(CC(=O)Nc2ccc(Br)cc2)CC1` [BCI-121, reference compound], the “activity against SMYD3” value is “inactive”.

Staying with this test, now noted: Table 3; MTase assay, MAP3K2 peptide substrate; read-out: IC50.
For the compound `C[C@@H]1CN(C(=O)c2ccc3c(Cl)cc(-c4ccc(C(C)(C)O)cc4)nc3c2)CCN1C(=O)OCCF` [B267, 2-Fluoroethyl (R)-4-(4-chloro-2-(4-(2-hydroxypropan-2-yl)phenyl)quinoline-7-carbonyl)-2-methylpiperazine-1-carboxylate], the half-maximal inhibitory concentration (IC50) stood at 150 nM.
Consider `CCCOC(=O)N1CCN(C(=O)c2ccc3c(Cl)cc(-c4ccn(C)c4)nc3c2)C[C@H]1C` [B268, Propyl (R)-4-(4-chloro-2-(1-methyl-1H-pyrrol-3-yl)quinoline-7-carbonyl)-2-methylpiperazine-1-carboxylate], for which the IC50 amounted to 17 nM.
On to `CCCOC(=O)N1CCN(C(=O)c2ccc3c(Cl)cc(-c4ccc(C(C)(C)O)c(F)c4)nc3c2)C[C@H]1C` [B269, Propyl (R)-4-(4-chloro-2-(3-fluoro-4-(2-hydroxypropan-2-yl)phenyl)quinoline-7-carbonyl)-2-methylpiperazine-1-carboxylate], for which the IC50 worked out at 170 nM.
Same read-out and setting: as for `CCCOC(=O)N1CCN(C(=O)c2ccc3c(Cl)cc(-c4ccc(C(C)(C)O)cc4)nc3c2)C[C@@H]1C` [B270, Propyl (S)-4-(4-chloro-2-(4-(2-hydroxypropan-2-yl)phenyl)quinoline-7-carbonyl)-2-methylpiperazine-1-carboxylate], the figure is 16 nM; as for `CCCOC(=O)N1CCN(C(=O)c2ccc3c(Cl)cc(-c4cnn(C5COC5)c4)nc3c2)CC1` [B271, Propyl 4-(4-chloro-2-(1-(oxetan-3-yl)-1H-pyrazol-4-yl)quinoline-7-carbonyl)piperazine-1-carboxylate], 34 nM.
Turning to `CCCOC(=O)N1CCN(C(=O)c2ccc3c(Cl)cc(-c4cnn(C5COC5)c4)nc3c2)C[C@H]1C` [B272, Propyl (R)-4-(4-chloro-2-(1-(oxetan-3-yl)-1H-pyrazol-4-yl)quinoline-7-carbonyl)-2-methylpiperazine-1-carboxylate], the IC50 came out at 16 nM.
Take `CCCOC(=O)N1CCN(C(=O)c2ccc3c(Cl)cc(-c4cnn(C5COC5)c4)nc3c2)C[C@@H]1C` [B273, Propyl (S)-4-(4-chloro-2-(1-(oxetan-3-yl)-1H-pyrazol-4-yl)quinoline-7-carbonyl)-2-methylpiperazine-1-carboxylate]: the IC50 is 19 nM.
As to `CCCOC(=O)N1CCN(C(=O)c2ccc3c(Cl)cc(-c4cnn(CC(F)(F)F)c4)nc3c2)CC1` [B274, Propyl 4-(4-chloro-2-(1-(2,2,2-trifluoroethyl)-1H-pyrazol-4-yl)quinoline-7-carbonyl)piperazine-1-carboxylate], the IC50 is 210 nM.
Turning to `CCCOC(=O)N1CCN(C(=O)c2ccc3c(Cl)cc(-c4cnn(CC(F)(F)F)c4)nc3c2)C[C@H]1C` [B275, Propyl (R)-4-(4-chloro-2-(1-(2,2,2-trifluoroethyl)-1H-pyrazol-4-yl)quinoline-7-carbonyl)-2-methylpiperazine-1-carboxylate], the IC50 is 34 nM.
Turning to `CCCOC(=O)N1CCN(C(=O)c2ccc3c(Cl)cc(-c4cnn(CC(F)(F)F)c4)nc3c2)C[C@@H]1C` [B276, Propyl (S)-4-(4-chloro-2-(1-(2,2,2-trifluoroethyl)-1H-pyrazol-4-yl)quinoline-7-carbonyl)-2-methylpiperazine-1-carboxylate], the IC50 is 22 nM.
Same read-out and setting: as for `CCCOC(=O)N1CCN(C(=O)c2ccc3c(Cl)cc(-c4cnn(C5CCCC5)c4)nc3c2)CC1` [B277, Propyl 4-(4-chloro-2-(1-cyclopentyl-1H-pyrazol-4-yl)quinoline-7-carbonyl)piperazine-1-carboxylate], the figure is 60 nM; as for `CCCOC(=O)N1CCN(C(=O)c2ccc3c(Cl)cc(-c4cnn(C5CCCC5)c4)nc3c2)C[C@H]1C` [B278, Propyl (R)-4-(4-chloro-2-(1-cyclopentyl-1H-pyrazol-4-yl)quinoline-7-carbonyl)-2-methylpiperazine-1-carboxylate], 22 nM; as for `CCCOC(=O)N1CCN(C(=O)c2ccc3c(Cl)cc(-c4cnn(C5CCCC5)c4)nc3c2)C[C@@H]1C` [B279, Propyl (S)-4-(4-chloro-2-(1-cyclopentyl-1H-pyrazol-4-yl)quinoline-7-carbonyl)-2-methylpiperazine-1-carboxylate], 20 nM.
Take `CCCOC(=O)N1CCN(C(=O)c2ccc3c(Cl)cc(-c4ccc(OC)c(CN)c4)nc3c2)C[C@@H]1C` [B280, Propyl (S)-4-(2-(3-(aminomethyl)-4-methoxyphenyl)-4-chloroquinoline-7-carbonyl)-2-methylpiperazine-1-carboxylate]: the IC50 was 67 nM.
For `CCCOC(=O)N1CCN(C(=O)c2ccc3c(Cl)cc(-c4ccc(C5(N)CC5)cc4)nc3c2)C[C@H]1C` [B281, Propyl (R)-4-(2-(4-(1-aminocyclopropyl)phenyl)-4-chloroquinoline-7-carbonyl)-2-methylpiperazine-1-carboxylate], the IC50 came out at 12 nM.
Take `CCCOC(=O)N1CCN(C(=O)c2ccc3c(Cl)cc(-c4ccc(C(C)(C)CN)cc4)nc3c2)C[C@H]1C` [B282, Propyl (R)-4-(2-(4-(1-amino-2-methylpropan-2-yl)phenyl)-4-chloroquinoline-7-carbonyl)-2-methylpiperazine-1-carboxylate]: the IC50 is 13 nM.
Regarding `CCCOC(=O)N1CCN(C(=O)c2ccc3c(Cl)cc(-c4ccc(C(C)N5CCCC5)cc4)nc3c2)C[C@H]1C` (stereo partly drawn) [B283, Propyl (2R)-4-(4-chloro-2-(4-(1-(pyrrolidin-1-yl)ethyl)phenyl)quinoline-7-carbonyl)-2-methylpiperazine-1-carboxylate], the IC50 worked out at 280 nM.
For the compound `CCCOC(=O)N1CCN(C(=O)c2ccc3c(Cl)cc(-c4ccc(C(C)N(C)C)cc4)nc3c2)C[C@H]1C` (stereo partly drawn) [B284, Propyl (2R)-4-(4-chloro-2-(4-(1-(dimethylamino)ethyl)phenyl)quinoline-7-carbonyl)-2-methylpiperazine-1-carboxylate], the IC50 worked out at 24 nM.
In the case of `CCCOC(=O)N1CCN(C(=O)c2ccc3c(Cl)cc(-c4ccc(C(C)(C)CN)cc4)nc3c2)CC1` [B285, Propyl 4-(2-(4-(1-amino-2-methylpropan-2-yl)phenyl)-4-chloroquinoline-7-carbonyl)piperazine-1-carboxylate], the IC50 is 13 nM.
`CCCOC(=O)N1CCN(C(=O)c2ccc3c(Cl)cc(-c4ccc(C(C)(C)CNC)cc4)nc3c2)CC1` [B286, Propyl 4-(4-chloro-2-(4-(2-methyl-1-(methylamino)propan-2-yl)phenyl)quinoline-7-carbonyl)piperazine-1-carboxylate]: the IC50 stood at 25 nM.
Take `CCCOC(=O)N1CCN(C(=O)c2ccc3c(Cl)cc(-c4ccc(C(C)(C)CN(C)C)cc4)nc3c2)CC1` [B287, Propyl 4-(4-chloro-2-(4-(1-(dimethylamino)-2-methylpropan-2-yl)phenyl)quinoline-7-carbonyl)piperazine-1-carboxylate]: the IC50 was 130 nM.
In the case of `C=CCOC(=O)N1CCN(C(=O)c2ccc3c(Cl)c4c(nc3c2)CCC4)CC1` [C002, Allyl 4-(9-chloro-2,3-dihydro-1H-cyclopenta[b]quinoline-6-carbonyl)piperazine-1-carboxylate], the IC50 was 10000 nM.
Regarding `CCCOC(=O)N1CCN(C(=O)c2ccc3c(Cl)c(C)c(C)nc3c2)CC1` [C003, Propyl 4-(4-chloro-2,3-dimethylquinoline-7-carbonyl)piperazine-1-carboxylate], the IC50 came to 3000 nM.
In the case of `CCCOC(=O)N1CCN(C(=O)c2ccc3c(Cl)cc(CC)nc3c2)CC1` [C004, Propyl 4-(4-chloro-2-ethylquinoline-7-carbonyl)piperazine-1-carboxylate], the IC50 was determined as 1400 nM.
For `CCCOC(=O)N1CCN(C(=O)c2ccc3c(Cl)c(C#N)c(C)nc3c2)CC1` [C006, Propyl 4-(4-chloro-3-cyano-2-methylquinoline-7-carbonyl)piperazine-1-carboxylate], the half-maximal inhibitory concentration (IC50) is 2800 nM.
Same read-out and setting: as for `CCCOC(=O)N1C2CCCC1CN(C(=O)c1ccc3c(Cl)ccnc3c1)C2` [C007, Propyl 3-(4-chloroquinoline-7-carbonyl)-3,9-diazabicyclo[3.3.1]nonane-9-carboxylate], the figure is 550 nM; as for `CCCOC(=O)N1CCN(C(=O)c2ccc3c(Cl)c4c(nc3c2)CCNC4)CC1` [C008, Propyl 4-(10-chloro-1,2,3,4-tetrahydrobenzo[b][1,6]naphthyridine-7-carbonyl)piperazine-1-carboxylate], 4600 nM.
With `C[C@@H]1CN(C(=O)c2ccc3c(Cl)cc(-c4ccn(C)c4)nc3c2)CCN1C(=O)C[C@H]1CCC(=O)N1` [D001, (R)-5-(2((R)-4-(4-Chloro-2-(1-methyl-1H-pyrrol-3-yl)quinoline-7-carbonyl)-2-methylpiperazin-1-yl)-2-oxoethyl)pyrrolidin-2-one], the IC50 was 13600 nM.
For the compound `O=C(c1ccc2c(Cl)cc(-c3ccccc3)nc2c1)N1CCN(C(=O)c2cn(C3CC3)nn2)CC1` [D002, (4-Chloro-2-phenylquinolin-7-yl)(4-(1-cyclopropyl-1H-1,2,3-triazole-4-carbonyl)piperazin-1-yl)methanone], the IC50 amounted to 4 nM.
Turning to `Cn1ccc(-c2cc(Cl)c3ccc(C(=O)N4CCN(C(=O)c5cn(C6CC6)nn5)CC4)cc3n2)c1` [D003, (4-Chloro-2-(1-methyl-1H-pyrrol-3-yl)quinolin-7-yl)(4-(1-cyclopropyl-1H-1,2,3-triazole-4-carbonyl)piperazin-1-yl)methanone], the IC50 was 25 nM.
